Assay results published in patent EP0533933A1, “BISHETEROCYCLIC COMPOUND” (YAMANOUCHI PHARMACEUTICAL CO. LTD., priority 1990, dated 1992).

Columns and labels:
[1] = tested on: KK mice; test: Hypoglycemic activity (blood glucose decrease in KK mice, glucose oxidase method); type: in vivo; settings: percent decrease of blood glucose from the level prior to administration; dosage level of 100 mg; per os daily for 4 consecutive days, blood glucose on day 5; male KK mice on high caloric diet
Method: Male KK mice, 4-5 weeks old, were obtained from Japan Clea. The animals were individually put on a high caloric diet (CMF, Oriental Yeast) and the individuals weighing about 40 g were selectively used.
For determination of blood glucose, 10 µl of blood was withdrawn from the caudal vein, deproteinized with 100 µl of 0.33 N perchloric acid and centrifuged. The glucose in the supernatant was assayed by the glucose oxidase method. Groups of 6 animals showing 200 mg/dℓ or more of blood glucose were submitted to the experiment.
The test compound was suspended in 0.5% methylcellulose and administered daily per os for 4 consecutive days. Before administration and on day 5, the blood was withdrawn from the caudal vein of each animal and the blood glucose was determined by the above method.
Hypoglycemic potency was expressed in terms of percent decrease from the glucose level prior to administration of the test compound and the results were statistically evaluated at the significance level of p=0.05. * = p<0.05 ** = p<0.01 *** = p<0.001 As a result, a significant hypoglycemic effect was attained within the dose range of 10 to 300 mg/kg.

[2] = tested on: Fischer rats; test: Oral toxicity in Fischer rats, 3 consecutive days; type: in vivo; settings: Fischer rats (2 animals per sex), orally, 1,000 mg/kg for 3 consecutive days

Structure (SMILES) | % Inhibition [1] | abnormality after oral administration [2]
O=C1NC(=O)C(Cc2ccc(OCCCCCCCOc3ccc(CC4SC(=O)NC4=O)cc3)cc2)S1 (stereo not shown) [Example 14, 1,7-bis[4-[(2,4-dioxo-5-thiazolidinyl)methyl]phenoxy]heptane] | 37% | –
O=C1NC(=O)C(Cc2ccc(Cc3ccc(CC4SC(=O)NC4=O)cc3)cc2)S1 (stereo not shown) [Example 15, 4,4'-bis[(2,4-dioxo-5-thiazolidinyl)methyl]diphenylmethane] | 47% | no abnormality was observed
O=C1NC(=O)C(Cc2ccc(OC/C=C/COc3ccc(CC4SC(=O)NC4=O)cc3)cc2)S1 (stereo not drawn) [Example 16, trans-1,4-bis[p-[(2,4-dioxo-5-thiazolidinyl)methyl]phenoxy]-2-butene] | 51% | –
